Results: patent publication US20260207618A1, “PYRIMIDINE CARBOXAMIDE COMPOUNDS” (Acrivon Therapeutics, Inc., priority 2022, published 2026)

Experiments:
[1] = target: T1, recombinant human Wee1A kinase (Homo sapiens, UniProt P30291); assay: LanthaScreen Europium (Eu) Kinase Binding Assay, Wee1A kinase (TR-FRET tracer displacement); details: 30 nM tracer 178, 5 nM Wee1A kinase, 60 minutes at room temperature
T1 construct: full length Wee1A kinase was expressed by baculovirus in insect cells; purchased Invitrogen PV3817; host or cells: insect cells (baculovirus)
T1 sequence (P30291 whole entry): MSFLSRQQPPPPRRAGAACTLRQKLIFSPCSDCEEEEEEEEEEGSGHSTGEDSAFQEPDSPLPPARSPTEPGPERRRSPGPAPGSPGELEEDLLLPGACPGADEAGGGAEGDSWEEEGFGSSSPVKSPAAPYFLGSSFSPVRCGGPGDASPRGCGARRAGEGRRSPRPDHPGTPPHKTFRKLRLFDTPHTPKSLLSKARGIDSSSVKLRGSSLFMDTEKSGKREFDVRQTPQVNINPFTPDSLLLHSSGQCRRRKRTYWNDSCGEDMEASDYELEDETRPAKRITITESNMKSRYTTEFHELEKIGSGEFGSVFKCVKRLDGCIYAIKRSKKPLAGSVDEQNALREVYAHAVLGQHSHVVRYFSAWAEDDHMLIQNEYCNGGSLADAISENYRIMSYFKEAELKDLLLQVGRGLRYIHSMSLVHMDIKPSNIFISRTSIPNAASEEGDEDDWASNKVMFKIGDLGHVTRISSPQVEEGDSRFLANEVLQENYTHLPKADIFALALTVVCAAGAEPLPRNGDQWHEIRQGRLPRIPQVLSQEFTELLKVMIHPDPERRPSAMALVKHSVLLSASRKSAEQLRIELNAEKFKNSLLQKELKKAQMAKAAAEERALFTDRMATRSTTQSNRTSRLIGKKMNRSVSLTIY
Excerpt: We used a LanthaScreen Europium (Eu) Kinase Binding Assay to determine the binding of provided compounds to Wee1A kinase. The assay utilizes an Alexa Fluor 647-labeled ATP competitive kinase tracer that binds to the ATP binding site of a GST-tagged Wee1A kinase, while a europium (Eu) labeled antibody binds to the GST tag. The proximity of fluorescently labeled kinase tracer and europium (Eu) donor fluorophore antibody leads to fluorescence resonance energy transfer (FRET) to the fluorescence label (acceptor) upon excitation of the Eu (donor). Displacement of tracer from the ATP-binding site by a test compound disturbs the proximity between both labels thus lowering the FRET.
This time resolved-FRET binding assay was performed in white 384-well low volume plates (Greiner, cat #784075), at room temperature in kinase buffer A (KBA; Invitrogen cat #PV3189), consisting of 50 mM HEPES-NaOH (pH 7.5), 0.01% Brij-35, 10 mM MgCl2, and 1 mM EGTA. 5 μl of compound (diluted in reaction buffer, to 1% DMSO) were added to various wells in the plate, followed by 5 μl each of recombinant human Wee1A kinase (full length Wee1A kinase was expressed by baculovirus in insect cells using a N-terminal GST tag (MW: 99.1 kDa) (Invitrogen cat #PV3817) and LanthaScreen Eu-anti-GST antibody (Invitrogen, cat #PV5594). After this, 5 μl of kinase tracer 178 (Invitrogen, cat #PV5593) was added to the plate and the plate was incubated for 60 minutes at room temperature. The final assay conditions in each well were: 30 nM tracer 178, 5 nM Wee1A kinase and 2 nM Eu-labeled antibody in total assay volume of 15 μl. An Envision 2104 (Perkin-Elmer) Plate Reader with the following time-resolve fluorescence setting was used for performing LanthaScreen kinase binding assay. • Excitation 320 nm (30 nm bandpass) • Kinase Tracer Emission 665 nm (10 nm bandpass) • LanthaScreen Eu-anti-Tag Antibody Emission 615 nm (10 nm bandpass) • Dichroic Mirror Instrument dependent • Delay Time 100 μs • Integration Time 200 μs
To calculate the emission ratio, the acceptor/tracer emission ([…]) was divided by the antibody/donor emission ([…]) and the average of duplicate measurement was used for calculations. Data plotting, analysis of binding, and curve fitting was done using Excel add-in XLfit version 5.5.0.5 (IDBS, Guildford, United Kingdom).

[2] = test system: Cdk1 phosphorylated on tyrosine 15; assay: High-content imaging of pCdk1 Y15 by immunofluorescence in ACHN cells; format: cell-based; details: Homo sapiens, high-content imaging (IF), 4 h, 7 to 5000 nM, read-out: CDK1 Tyr15 Phosphorylation EC50 (IC50)
Procedure: ACHN renal cell carcinoma cell line (ATCC) was cultured in Minimum Essential Medium Eagle supplemented with 10% fetal calf serum (Sigma), 1% Penicillin-Streptomycin and 10 mM HEPES buffer (HyClone). Cell cultures were kept in a humidified incubator at 37° C. and 5% CO2. Cells were routinely tested for Mycoplasma contamination.
High-content imaging of ACHN renal cell carcinoma cells was used for quantification of CDK1 phosphorylated on tyrosine 15 by immunofluorescence (“IF”). 20 000 cells per well were seeded in tissue culture treated 96 well plates and treated with compounds at concentrations ranging from 7 to 5000 nM for 4 h. Cells were fixated for 15 minutes in 4% paraformaldehyde solution, washed in PBS and permeabilized using 0.2% Triton X-100. Blocking was performed for 1 h at RT using Blocker FL Fluorescent Blocking Buffer (Thermo Scientific), thereafter cells were incubated with primary antibody (rabbit anti-pCDK1 Y^15, #4539, Cell Signaling Technology) at 4° C. ON. Alexa Fluor Plus 647 labelled goat anti-rabbit (A32733. Thermo Scientific) was used as secondary antibody. After washing in PBS, nuclei were stained with DAPI solution for 10 min at RT, protected from light. Cells were imaged using an ImageXpress Pico automated imaging system and CellReporter Xpress software (Molecular Devices). The percentage cells with nuclear positivity for pCdk1 Y^15 compared to DMSO control was determined for each well and drug dose response curves and EC50 values were calculated and visualized using GraphPad Prism.

IC50 [1]	EC50 [2]	SMILES
≤ 10 nM	100 to 500 nM	COc1nc(Nc2ccc(C3CCN(C)CC3)c(C)c2)ncc1C(=O)Nc1c(C)cccc1Br [Compound 108, N-(2-bromo-6-methylphenyl)-4-methoxy-2-((3-methyl-4-(1-methylpiperidin-4-yl)phenyl)amino)pyrimidine-5-carboxamide]
≤ 10 nM	100 to 500 nM	COc1nc(Nc2ccc(N3CCN(C)CC3)cc2)ncc1C(=O)Nc1c(Cl)cccc1Cl [Compound 111, N-(2,6-dichlorophenyl)-4-methoxy-2-((4-(4-methylpiperazin-1-yl)phenyl)amino)pyrimidine-5-carboxamide]
≤ 10 nM	100 to 500 nM	COc1nc(Nc2ccc(C3CCN(C)CC3)c(C)c2)ncc1C(=O)Nc1c(F)cccc1Cl [Compound 113, N-(2-chloro-6-fluorophenyl)-4-methoxy-2-((3-methyl-4-(1-methylpiperidin-4-yl)phenyl)amino)pyrimidine-5-carboxamide]
≤ 10 nM	> 1000 nM	COc1nc(Nc2ccc(C3CCN(C)CC3)c(C)c2)ncc1C(=O)Nc1ccccc1C(F)(F)F [Compound 114, 4-methoxy-2-((3-methyl-4-(1-methylpiperidin-4-yl)phenyl)amino)-N-(2-(trifluoromethyl)phenyl)pyrimidine-5-carboxamide]
≤ 10 nM	> 1000 nM	COc1nc(Nc2ccc(C3CCN(C)CC3)c(C)c2)ncc1C(=O)Nc1c(C)cccc1C(F)(F)F [Compound 120, 4-methoxy-2-((3-methyl-4-(1-methylpiperidin-4-yl)phenyl)amino)-N-(2-methyl-6-(trifluoromethyl)phenyl)pyrimidine-5-carboxamide]
≤ 10 nM	100 to 500 nM	COc1nc(Nc2ccc(C3CCN(C)CC3)c(C)c2)ncc1C(=O)Nc1c(Cl)cc(F)cc1Cl [Compound 121, N-(2,6-dichloro-4-fluorophenyl)-4-methoxy-2-((3-methyl-4-(1-methylpiperidin-4-yl)phenyl)amino)pyrimidine-5-carboxamide]
10 to 100 nM	> 1000 nM	CN1CCN(c2ccc(Nc3ncc(C(=O)Nc4c(Cl)cccc4Cl)c(OCCO)n3)cc2)CC1 [Compound 123, N-(2,6-dichlorophenyl)-4-(2-hydroxyethoxy)-2-((4-(4-methylpiperazin-1-yl)phenyl)amino)pyrimidine-5-carboxamide]
≤ 10 nM	> 1000 nM	COc1nc(Nc2ccc(C3CCN(C)CC3)c(C)c2)ncc1C(=O)Nc1c(Cl)ccc(F)c1F [Compound 125, N-(6-chloro-2,3-difluorophenyl)-4-methoxy-2-((3-methyl-4-(1-methylpiperidin-4-yl)phenyl)amino)pyrimidine-5-carboxamide]
≤ 10 nM	100 to 500 nM	COc1nc(Nc2ccc(C3CCN(C)CC3)c(C)c2)ncc1C(=O)Nc1c(F)cc(F)cc1Cl [Compound 127, N-(2-chloro-4,6-difluorophenyl)-4-methoxy-2-((3-methyl-4-(1-methylpiperidin-4-yl)phenyl)amino)pyrimidine-5-carboxamide]
≤ 10 nM	100 to 500 nM	COc1nc(Nc2ccc(C3CCN(C)CC3)c(C)c2)ncc1C(=O)Nc1c(F)ccc(F)c1Cl [Compound 128, N-(2-chloro-3,6-difluorophenyl)-4-methoxy-2-((3-methyl-4-(1-methylpiperidin-4-yl)phenyl)amino)pyrimidine-5-carboxamide]
≤ 10 nM	> 1000 nM	COc1cccc(Cl)c1NC(=O)c1cnc(Nc2ccc(C3CCN(C)CC3)c(C)c2)nc1OC [Compound 130, N-(2-chloro-6-methoxyphenyl)-4-methoxy-2-((3-methyl-4-(1-methylpiperidin-4-yl)phenyl)amino)pyrimidine-5-carboxamide]
≤ 10 nM	100 to 500 nM	CCc1cccc(Cl)c1NC(=O)c1cnc(Nc2ccc(C3CCN(C)CC3)c(C)c2)nc1OC [Compound 132, N-(2-chloro-6-ethylphenyl)-4-methoxy-2-((3-methyl-4-(1-methylpiperidin-4-yl)phenyl)amino)pyrimidine-5-carboxamide]
